Test results published in US9585877B2, “Methods of maintaining, treating or improving cognitive function” (Forum Pharmaceuticals, Inc., priority 2012, dated 2017).

Test system: subjects with mild-to-moderate Alzheimer's disease
Assay: Clinical study, Clinical Dementia Rating-Sum of Boxes (CDR-SB)
Format: in vivo, human
Protocol: A double-blind study of 3 doses of the Test Composition or placebo in subjects with mild-to-moderate Alzheimer's disease, with or without receiving a concomitant AChEI for 24 weeks (168 days) after a 7 day placebo run-in period.
Total number of subjects in the safety population was 409 subjects that were dosed once-daily with a dosing-capsule for a period of 168 days. The subjects dosed, and the particular dosing, included: 104 subjects dosed with Placebo capsule; and 305 subjects dosed with Test Compound (104 subjects with 0.3 mg capsules; 101 subjects with 1 mg capsules; and 100 subjects with 2 mg capsules).
The population included generally healthy male or female subjects, aged 50 to ≦85 years, with mild-to-moderate Alzheimer's disease, consistent with criteria defined by a Work Group of the National Institute of Neurological and Communicative Disorders and Stroke—Alzheimer's Disease and Related Disorders Association, of mild to moderate severity, with a Mini-Mental State Examination score (MMSE) 14 and ≦24, and a Clinical Dementia Rating Scale Sum of the Boxes (CDR-SB) score of 2. […] Subjects were required to be either receiving a stable dose of an AChEI (donepezil or rivastigmine) for at least 3 months before screening or not presently being treated with an AChEI or mementine for at least 30 days.
Subjects with mild to moderate Alzheimer's disease receiving stable treatment with an AChEI (donepezil or rivastigmine: ‘add-on’ subjects) or not receiving an AChEI (de novo subjects′) received 0.3, 1, or 2 mg doses of Test Composition or placebo for up to 24 weeks (168 days) of double-blind treatment, after a 7-day single-blind, placebo run-in period to assess study drug compliance. A follow-up telephone contact was conducted approximately 15 days after the last dose of study drug for questions regarding safety.
Clinical Dementia Rating-Sum of Boxes CDR-SB
The CDR-SB test employed herein is based on the procedure developed by Hughs C D, Berg L, Danziger W L, Coben L A, and Martin R L. “A new clinical scale for the staging of dementia”; Br J Psychiatry. 1982; 140:566-572, and provides an assessment of six (6) dimensions: Memory, Orientation, Judgment and Problem Solving, Community Affairs, Home and Hobbies, and Personal Care.
Each of the six CDR dimensions are scored separately with well-defined anchors from 0 to 3.0 (no impairment to severe illness). The total sum of boxes ranges from 0 to 18. Higher totals indicate more severe impairment. A decrease from baseline indicates improvement.

With `Cl.O.O=C(N[C@H]1CN2CCC1CC2)c1cc2cccc(Cl)c2s1` [Test Compound, (R)-7-chloro-N-(quinuclidin-3-yl)benzo[b]thiophene-2-carboxamide, hydrochloride, monohydrate] the “CDR-SB (Baseline was assigned the value of zero @ Week 0)” value (0.3 mg daily dose, Week 4) was 0.0026, the “CDR-SB (Baseline was assigned the value of zero @ Week 0)” value (0.3 mg daily dose, Week 12) was 0.0542 and the “CDR-SB (Baseline was assigned the value of zero @ Week 0)” value (0.3 mg daily dose, Week 18) was 0.2325. The “CDR-SB (Baseline was assigned the value of zero @ Week 0)” value (0.3 mg daily dose, Week 23) was 0.4427, the “CDR-SB (Baseline was assigned the value of zero @ Week 0)” value (1 mg daily dose, Week 4) was −0.2365 and the “CDR-SB (Baseline was assigned the value of zero @ Week 0)” value (1 mg daily dose, Week 12) was −0.0811. For the same compound, the “CDR-SB (Baseline was assigned the value of zero @ Week 0)” value (1 mg daily dose, Week 18) was −0.0424, the “CDR-SB (Baseline was assigned the value of zero @ Week 0)” value (1 mg daily dose, Week 23) was 0.1214 and the “CDR-SB (Baseline was assigned the value of zero @ Week 0)” value (2 mg daily dose, Week 4) was −0.1361. For the same compound, the “CDR-SB (Baseline was assigned the value of zero @ Week 0)” value (2 mg daily dose, Week 12) was −0.1352, the “CDR-SB (Baseline was assigned the value of zero @ Week 0)” value (2 mg daily dose, Week 18) was −0.1368 and the “CDR-SB (Baseline was assigned the value of zero @ Week 0)” value (2 mg daily dose, Week 23) was −0.088. The “CDR-SB Effect Size” value (2 mg dose versus Placebo) was 0.31, the “CDR-SB (Baseline was assigned the value of zero @ Week 0)” value (Add-On patients (stable donepezil or rivastigmine), 0.3 mg daily dose, Week 4) was −0.2148 and the “CDR-SB (Baseline was assigned the value of zero @ Week 0)” value (Add-On patients (stable donepezil or rivastigmine), 0.3 mg daily dose, Week 12) was −0.1333. For the same compound, the “CDR-SB (Baseline was assigned the value of zero @ Week 0)” value (Add-On patients (stable donepezil or rivastigmine), 0.3 mg daily dose, Week 18) was 0.0576, the “CDR-SB (Baseline was assigned the value of zero @ Week 0)” value (Add-On patients (stable donepezil or rivastigmine), 0.3 mg daily dose, Week 23) was 0.4174 and the “CDR-SB (Baseline was assigned the value of zero @ Week 0)” value (Add-On patients (stable donepezil or rivastigmine), 1 mg daily dose, Week 4) was −0.2473. The “CDR-SB (Baseline was assigned the value of zero @ Week 0)” value (Add-On patients (stable donepezil or rivastigmine), 1 mg daily dose, Week 12) was 0.1511, the “CDR-SB (Baseline was assigned the value of zero @ Week 0)” value (Add-On patients (stable donepezil or rivastigmine), 1 mg daily dose, Week 18) was 0.2268 and the “CDR-SB (Baseline was assigned the value of zero @ Week 0)” value (Add-On patients (stable donepezil or rivastigmine), 1 mg daily dose, Week 23) was 0.476. The “CDR-SB (Baseline was assigned the value of zero @ Week 0)” value (Add-On patients (stable donepezil or rivastigmine), 2 mg daily dose, Week 4) was −0.236, the “CDR-SB (Baseline was assigned the value of zero @ Week 0)” value (Add-On patients (stable donepezil or rivastigmine), 2 mg daily dose, Week 12) was −0.2247 and the “CDR-SB (Baseline was assigned the value of zero @ Week 0)” value (Add-On patients (stable donepezil or rivastigmine), 2 mg daily dose, Week 18) was −0.1084. For the same compound, the “CDR-SB (Baseline was assigned the value of zero @ Week 0)” value (Add-On patients (stable donepezil or rivastigmine), 2 mg daily dose, Week 23) was −0.1633, the “CDR-SB (Baseline was assigned the value of zero @ Week 0)” value (de novo patients, 0.3 mg daily dose, Week 4) was 0.0816 and the “CDR-SB (Baseline was assigned the value of zero @ Week 0)” value (de novo patients, 0.3 mg daily dose, Week 12) was 0.1082. The “CDR-SB (Baseline was assigned the value of zero @ Week 0)” value (de novo patients, 0.3 mg daily dose, Week 18) was 0.27, the “CDR-SB (Baseline was assigned the value of zero @ Week 0)” value (de novo patients, 0.3 mg daily dose, Week 23) was 0.3392 and the “CDR-SB (Baseline was assigned the value of zero @ Week 0)” value (de novo patients, 1 mg daily dose, Week 4) was −0.3161. The “CDR-SB (Baseline was assigned the value of zero @ Week 0)” value (de novo patients, 1 mg daily dose, Week 12) was −0.3858, the “CDR-SB (Baseline was assigned the value of zero @ Week 0)” value (de novo patients, 1 mg daily dose, Week 18) was −0.3763 and the “CDR-SB (Baseline was assigned the value of zero @ Week 0)” value (de novo patients, 1 mg daily dose, Week 23) was −0.288. The “CDR-SB (Baseline was assigned the value of zero @ Week 0)” value (de novo patients, 2 mg daily dose, Week 4) was −0.133, the “CDR-SB (Baseline was assigned the value of zero @ Week 0)” value (de novo patients, 2 mg daily dose, Week 12) was −0.1475 and the “CDR-SB (Baseline was assigned the value of zero @ Week 0)” value (de novo patients, 2 mg daily dose, Week 18) was −0.2625. For the same compound, the “CDR-SB (Baseline was assigned the value of zero @ Week 0)” value (de novo patients, 2 mg daily dose, Week 23) was −0.1239.
